Measurements reported in PubChem BioAssay AID624076 (Broad Institute, 2012).
Activity calls are given as the source filed them. How the calls were made is not given here.

Experiment: PubChem AID 624076
Conditions: Carna kinase panel, IMAP FP / mobility shift, at 10 µM, active compounds read high

Cc1cnc(-c2cnc(NCCNc3ccc(C#N)cn3)nc2-c2ccc(Cl)cc2Cl)[nH]1
inhibition (ABL(E255K)): -2.21% (inactive)
inhibition (ABL(T315I)): 3.27% (inactive)
inhibition (AKT2): 0.832% (inactive)
inhibition (AKT3): 0% (inactive)
inhibition (ALK(R1275Q)): -2.15% (inactive)
inhibition (ARG): -1.99% (inactive)
inhibition (AXL): 6.91% (inactive)
inhibition (AurB): 2.87% (inactive)
inhibition (AurC): 6.65% (inactive)
inhibition (BMPR1A): -9.7% (inactive)
inhibition (BRAF(V600E)): 14% (inactive)
inhibition (BRAF): 53.8%
inhibition (BRK): -3.52% (inactive)
inhibition (BRSK1): 10.2% (inactive)
inhibition (BTK): -3.98% (inactive)
inhibition (CDC7): -7.36% (inactive)
inhibition (CDK3): 42.4% (inactive)
inhibition (CDK5): 51.2%
inhibition (CDK9): 88.1%
inhibition (CHK2): 4.54% (inactive)
inhibition (CK1e): 10.4% (inactive)
inhibition (CK1g1): 85.8%
inhibition (CK2a2/b): 48.7% (inactive)
inhibition (CK1d): 23.2% (inactive)
inhibition (CLK1): 70.5%
inhibition (CLK2): 47.6% (inactive)
inhibition (COT): -1.49% (inactive)
inhibition (CRIK): 1.36% (inactive)
inhibition (CTK): -2.12% (inactive)
inhibition (CaMK2b): 0.457% (inactive)
inhibition (CaMK4): 6.27% (inactive)
inhibition (CaMK1d): 2.64% (inactive)
inhibition (DAPK1): 0.121% (inactive)
inhibition (DCAMKL2): 4.09% (inactive)
inhibition (DLK): -12.2% (inactive)
inhibition (DYRK1B): 20.8% (inactive)
inhibition (DYRK2): 17.2% (inactive)
inhibition (EGFR(L861Q)): 1.1% (inactive)
inhibition (EML4-ALK): -2.55% (inactive)
inhibition (EPHA3): -5.65% (inactive)
inhibition (EPHA5): -4.24% (inactive)
inhibition (EPHA8): -7.66% (inactive)
inhibition (EPHB1): 0.223% (inactive)
inhibition (EPHB4): -0.865% (inactive)
inhibition (FGFR1): 13.1% (inactive)
inhibition (FGFR3(K650E)): 12.5% (inactive)
inhibition (FGFR3(K650M)): 11.8% (inactive)
inhibition (FGFR4(N535K)): 3.65% (inactive)
inhibition (FGFR4(V550L)): 7.1% (inactive)
inhibition (FGFR4): 1.13% (inactive)
inhibition (FLT4): 40.4% (inactive)
inhibition (FMS): 9.78% (inactive)
inhibition (GSK3a): 99.9%
inhibition (HER4): -8.68% (inactive)
inhibition (HIPK1): 15.1% (inactive)
inhibition (HIPK3): 11% (inactive)
inhibition (Haspin): 9.76% (inactive)
inhibition (IGF1R): 0.373% (inactive)
inhibition (IKKb): 7.11% (inactive)
inhibition (IRAK4): -0.123% (inactive)
inhibition (IRR): 2.61% (inactive)
inhibition (JAK2): 5.28% (inactive)
inhibition (JAK3): 18.1% (inactive)
inhibition (JNK1): 11.5% (inactive)
inhibition (JNK2): 18.8% (inactive)
inhibition (JNK3): 16.9% (inactive)
inhibition (KIT(T670I)): 2.37% (inactive)
inhibition (KIT(V560G)): 8.71% (inactive)
inhibition (KIT): 5.43% (inactive)
inhibition (LATS2): 9.73% (inactive)
inhibition (LKB1): 16.6% (inactive)
inhibition (LOK): 4.96% (inactive)
inhibition (LTK): -0.743% (inactive)
inhibition (LYNa): 0.071% (inactive)
inhibition (MAP2K5): -7.9% (inactive)
inhibition (MAP3K1): 8.06% (inactive)
inhibition (MAP3K3): -21.6% (inactive)
inhibition (MAP4K2): 12.9% (inactive)
inhibition (MARK2): 13.3% (inactive)
inhibition (MARK4): 15.4% (inactive)
inhibition (MELK): 53.5%
inhibition (MER): 3.47% (inactive)
inhibition (MGC42105): 6.7% (inactive)
inhibition (MINK): 4.57% (inactive)
inhibition (MLK1): 51.4%
inhibition (MLK2): 0.179% (inactive)
inhibition (MOS): 5.27% (inactive)
inhibition (MSK1): 7.16% (inactive)
inhibition (MST2): 5.83% (inactive)
inhibition (MST4): 8.12% (inactive)
inhibition (NDR1): 2.42% (inactive)
inhibition (NEK1): 15.9% (inactive)
inhibition (NEK2): 8.33% (inactive)
inhibition (NEK6): 2.28% (inactive)
inhibition (NEK7): -3.45% (inactive)
inhibition (PAK3): 14.2% (inactive)
inhibition (PAK4): -9.87% (inactive)
inhibition (PAK5): 7.25% (inactive)
inhibition (PASK): 8.83% (inactive)
inhibition (PBK): 3.01% (inactive)
inhibition (PDGFRa(V561D)): 27% (inactive)
inhibition (PEK): 23.7% (inactive)
inhibition (PGK): -2.42% (inactive)
inhibition (PHKG1): 6.01% (inactive)
inhibition (PIM3): -2.3% (inactive)
inhibition (PKACg): 2.06% (inactive)
inhibition (PKCb2): 10.5% (inactive)
inhibition (PKCd): 15.8% (inactive)
inhibition (PKCg): 8.43% (inactive)
inhibition (PKD1): 24.8% (inactive)
inhibition (PKD2): 19.5% (inactive)
inhibition (PKD3): 40.8% (inactive)
inhibition (PKN1): 14.8% (inactive)
inhibition (PLK1): 59.2%
inhibition (PLK4): -13.5% (inactive)
inhibition (PRKX): 3.31% (inactive)
inhibition (RET(S891A)): 32.1% (inactive)
inhibition (RET(Y791F)): 12.8% (inactive)
inhibition (ROCK1): 0.774% (inactive)
inhibition (ROCK2): 1.96% (inactive)
inhibition (ROS): 11.2% (inactive)
inhibition (RSK1): 19.3% (inactive)
inhibition (RSK2): 19.9% (inactive)
inhibition (RSK4): 30.6% (inactive)
inhibition (SGK3): 0.522% (inactive)
inhibition (SIK): 2.55% (inactive)
inhibition (SLK): 43.3% (inactive)
inhibition (SRC): 2.22% (inactive)
inhibition (SRM): -1.3% (inactive)
inhibition (SRPK1): 17.3% (inactive)
inhibition (SYK): 1.08% (inactive)
inhibition (TAK1-TAB1): 34.1% (inactive)
inhibition (TIE2): 4.06% (inactive)
inhibition (TNK1): 27.1% (inactive)
inhibition (TRKA): 9.49% (inactive)
inhibition (TSSK3): -3.5% (inactive)
inhibition (TTK): -10.8% (inactive)
inhibition (TYK2): -0.177% (inactive)
inhibition (WNK2): 3.23% (inactive)
inhibition (p38d): 2.62% (inactive)
